Test [1] has as its system MAPKAP-K1. Nature of the test: NGF-induced activation of MAPKAP-K1 in PC12 cells. Conditions: 50 μM PD 98059, 10 μM SB 203580.
In test [2] the test system is MSK1. Nature of the test: Activation of endogenous MSK1 in 293 cells (immunoprecipitation and Crosstide assay). The note with it: for activation of MSK1 by EGF and TPA: 50 μM PD 98059 or 10 μM SB 203580, 1 h. The test is classed as cell-based, human.
Test [3] concerns MAPKAP-K1a/b. In words: Activation of MAPKAP-K1a/b in 293 cells. Conditions: 50 μM PD 98059 or 10 μM SB 203580.
The test system of test [4] is CREB. In words: NGF-induced phosphorylation of CREB in PC12 cells. The test is classed as cell-based. The note with it: 50 μM PD 98059, 10 μM SB 203580, 5 μM Ro 318220, NGF 30 ng/ml 15 min. The procedure: Immunoblotting for phosphorylated CREB and ATF1. Cell extracts were prepared and immunoblotting of these carried out as described (Tan et al., 1996) using a phosphospecific antibody recognizing CREB phosphorylated on Ser 133 and ATF1 phosphorylated on Ser63 purchased from UBI (Lake Placid, USA). Detection of phosphorylated CREB and ATF1 proteins was performed using the enhanced chemiluminescence reagent (Amersham).

In test [5] the test system is MSK1. Nature of the test: NGF-induced activation of MSK1 in PC12 cells. Conditions: 50 μM PD 98059, 10 μM SB 203580, NGF 30 ng/ml 15 min.
The subject of test [6] is CREB and ATF1. Nature of the test: CREB and ATF1 phosphorylation in RAW 264 macrophages, immunoblot. The test is classed as cell-based, mouse. Conditions: for LPS-induced phosphorylation of CREB and ATF1: LPS 100 ng/ml 1 h. The procedure: FIG. 15. […] After cell lysis aliquots were assayed for either MSK1 (A), MAPKAP-K1 (B), MAPKAP-K2 (C) after their immunoprecipitation from the lysates or immunoblotted for phosphorylation of CREB and ATF1 (D).
FIG. 19. […] (A) Macrophages were stimulated for the times indicated with LPS (100 ng/ml). After cell lysis, aliquots of the lysate (30 Tg protein) were denatured in SDS, electrophoresed on a 10% polyacrylamide gel, transferred to a nitrocellulose membrane, and immunoblotted with a phospho-CREB antibody. The positions of the molecular mass markers glycogen phosphorylase (97 kDa), bovine serum albumin (66 kDa), ovalbumin (43 kDa) and carbonic anhydrase (30 kDa) are indicated. […] (B) As in A, except that the macrophages were incubated for 1 h in the presence or absence of 50 TM PD 98059 and/or 10 TM SB 203580 (SB), or 5 TM Ro 318220 (Ro), then stimulated for 1 h in the absence or presence of 100 ng/ml LPS and in the continued presence or absence of the inhibitors.
(§1) FIG. 22. […] (A) Macrophages were stimulated for 1 h with LPS (100 ng/ml) or for 15 min with forskolin (F) (20 TM) plus IBMX (10 TM). After cell lysis, aliquots of the lysate (30 Tg protein) were immunoblotted with a phospho-specific CREB antibody (see legend to FIG. 19 for details and molecular mass markers). (B) Macrophages were stimulated for 3 h with LPS (100 ng/ml), or forskolin (20 TM) plus IBMX (10 TM), and immunoblotting performed with a specific COX-2 antibody (materials & methods section). The marker proteins are as in FIG. 19.
(§2) Cell culture and stimulation. RAW 264 macrophages were maintained in a 95% air/5% CO2 atmosphere in Dulbecco's modified Eagle's medium (DMEM) plus 10% (v/v) heat-inactivated foetal calf serum, 100 U/ml penicillin, […] streptomycin. The day before stimulation, the macrophages were plated at a density of 2×10^6 cells per 6 cm plate and 2 h before stimulation, the medium removed and replaced with 2 ml of DMEM. Where indicated, […] (10 TM) and/or PD 98059 (50 Tm), or U0126 (10 TM) or Ro 318220 (5 TM), were added 1 h before stimulation.
(§3) Immunoblotting. For immunoblotting of CREB, nuclear cell extracts were prepared as described and immunoblotting performed using a phospho-specific antibody recognising CREB phosphorylated on Ser 133 and ATF1 phosphorylated on Ser 63. For immunoblotting of COX-2, cell lysate (30 Tg protein) was denatured in SDS, electrophoresed on 10% polyacrylamide gel, transferred to a nitrocellulose membrane, and immunoblotted with anti-COX-2 antibody (1.0 mg/ml). Detection of phosphorylated CREB and ATF1 and COX-2 was performed using the enhanced chemiluminescence reagent (ECL).
(In general: In western blotting, separated proteins are transferred to a membrane and probed.)

The subject of test [7] is COX-2 protein. In words: Induction of COX-2 protein in RAW 264 macrophages, immunoblot. The test is classed as cell-based, mouse. Conditions: LPS 100 ng/ml 4 h, 50 TM PD 98059, 10 TM SB 203580, 5 TM Ro 318220. As for the experimental part:
FIG. 20. […] (A) Macrophages were stimulated for the times indicated with LPS (100 ng/ml).
as §1, §2, §3

In test [8] the test system is HSP27. In words: UV induced phosphorylation of HSP27 in 293 cells. The test is classed as cell-based, human. The note with it: UV 200 J/m^2. As for the experimental part:
FIG. 9. Effect of Ro 318220 on the activity of MSK1. (A) Effect of Ro 318220 on GST-MSK1 (closed circles), mixed PKC isoforms (open circles) GST-MAPKAP-K1b and MAPKAP-K2 (open triangles) in vitro. […] The error for each point is ±10%. […] The cells were lysed MAPKAP-K2 was immunoprecipitated and assayed. […] (C) as above except that 293 cells were incubated for 2 h in 32phosphate (0.1 mCi/ml) before treatment with inhibitors. Cells were then exposed to either UV radiation (200 J/m2) or left untreated (−), incubated for a further 20 min in the continued presence of inhibitors. Following cell lysis, HSP27 was immunoprecipitated from cell extracts (Cuenda et al., 1995) run on a 15% polyacrylamide gel and autoradiographed.

In test [9] the test system is MAPKAP-K2. In words: Activation of MAPKAP-K2 by TNF in HeLa cells. The test is classed as cell-based. The text has this:
(§4) Cell Culture, stimulation and cell lysis.

In test [10] the test system is MSK2. In words: LPS-induced activation of MSK2 in RAW 264 macrophages. The test is classed as cell-based, mouse. The note with it: LPS 100 ng/ml 1 h, 10 μM UO 126, 10 μM SB 203580, 5 TM Ro 318220.
Test [11] has as its system MAPKAP-K2. In words: Activation of MAPKAP-K2 in SK-N-MC cells. The test is classed as cell-based. Conditions: 50 μM PD 98059, 10 μM SB 203580, 5 μM Ro 318220. As for the experimental part:
FIG. 14. […] After cell lysis aliquots were assayed for either MSK1 (A), MAPKAP-K1 (B), MAPKAP-K2 (C) after their immunoprecipitation from the lysates or immunoblotted for phosphorylation of CREB and ATF1 (D).
as §4

Setting [12] is: 50 TM PD 98059, 10 TM SB 203580, 5 TM Ro 318220.

This is an account of results in US7122360B1, “Polypeptides, polynucleotides and uses thereof” (University of Dundee, priority 1998, dated 2006).

“Also recorded” adds a separate entry of the source.

`COc1cccc(-c2cc(=O)c3ccccc3o2)c1N` [PD 98059]: the “NGF-induced activation of MAPKAP-K1” value in [1] is given as “only partially inhibited”. Besides, in test [2], the “activation of MSK1 by EGF and TPA” value is reported as “largely prevented”. Besides, in test [3], the “activation of MAPKAP-K1a/b by EGF and TPA” value was “largely suppressed”. In [4], the “NGF-induced phosphorylation of CREB” value was “not significantly affected”. Further, the “NGF-induced activation of MSK1” value in [5] was “not significantly affected”. Also, in test [6] (setting [12]), the “LPS-induced phosphorylation of CREB and ATF1” value (shortened to “LPS-induced phosphorylation”) was “appear to inhibit; also recorded: partially inhibited”. Moreover, the “LPS-stimulated induction of COX-2 protein” value (shortened to “LPS-stimulated induction”) in [7] is “partially inhibited”.

For `Cn1cc(C2=C(c3cn(CCCSC(=N)N)c4ccccc34)C(=O)NC2=O)c2ccccc21` [Ro 318220], the “UV induced phosphorylation of HSP27” value in [8] is reported as “did not significantly affect”. Besides, in [9] (5 μM Ro 318220, data not shown), the “activation of MAPKAP-K2 by TNF” value is “unaffected”. The “LPS-induced activation of MSK2” value in test [10] is recorded as “does not affect”. The “NGF-induced phosphorylation of CREB” value in [4] is listed as “suppressed”. In [11], the “activation of MAPKAP-K2 by sodium arsenite and FGF” value is “does not affect”. Further, the “LPS-induced phosphorylation” value in test [6] (setting [12]) is listed as “completely prevents”. The “forskolin-triggered phosphorylation of CREB and ATF-1, effect of inhibitors” value in test [6] (data not shown) is on record as “not suppressed”. Also, in [7], the “LPS-stimulated induction” value is listed as “suppresses”.

On to `C[S+]([O-])c1ccc(-c2nc(-c3ccncc3)c(-c3ccc(F)cc3)[nH]2)cc1` (stereo not shown) [SB 203580], for which, in [8], the “UV induced phosphorylation of HSP27” value is “blocked”. Also, the “NGF-induced activation of MAPKAP-K1” value in [1] is on record as “unaffected”. The “activation of MAPKAP-K2 after 5 min of TNF stimulation” value in test [9] (50 μM PD 98059, 10 μM SB 203580) was “inhibited”. Further, in test [2], the “activation of MSK1 by EGF and TPA” value is on record as “but not by SB 203580”. Further, in [2] (sodium arsenite, UV radiation or H2O2, 50 μM PD 98059 or 10 μM SB 203580), the “activation of MSK1 by stressful stimuli” value is “largely inhibited”. Further, in test [10], the “LPS-induced activation of MSK2” value is listed as “only inhibited partially”. Also, in [3], the “activation of MAPKAP-K1a/b by EGF and TPA” value is on record as “but not by SB 203580”. For the same compound, the “NGF-induced phosphorylation of CREB” value in test [4] is listed as “not significantly affected”. Also, the “NGF-induced activation of MSK1” value in test [5] is on record as “not significantly affected”. Moreover, the “activation of MAPKAP-K2 by sodium arsenite and FGF” value in test [11] was “completely prevented”. Moreover, the “LPS-induced phosphorylation” value in test [6] (setting [12]) is given as “partially inhibited”; in test [6] (50 TM PD 98059, 10 TM SB 203580, 5 TM Ro 318220, listed as SB203580) it was “appear to inhibit”. In [7], the “LPS-stimulated induction” value is given as “partially inhibited”.
